Where two headings read alike, the source gives them in different places. Square brackets hold non-standard residues; d marks the D form. Peptide text beside a SMILES is read from it. d(hPhe) = N[C@H](CCc1ccccc1)C(=O)O; dPhLac = O=C(O)[C@H](O)Cc1ccccc1
Assays:
[1] = molecular target: T1, Trypsin from bovine pancreas (Bos taurus, UniProt P00760); assay: Enzyme amidolytic assay, trypsin inhibition (chromogenic substrate S-2222); type: biochemical; settings: for Ki: S-2222 substrate, 25 °C, Cheng and Prusoff
T1 construct: Trypsin from bovine pancreas; purchased Sigma; host or cells: bovine pancreas
Description: (§1) The enzyme amidolytic method for determining inhibition was based on the spectrophotometric determination of absorbance of the product formed after amide bond cleavage of a chromogenic substrate in the presence of the enzyme. Ki, which is a quantitative measure of inhibitor potency, was determined from the kinetics of substrate hydrolysis with and without the addition of the inhibitor. Measurements (spectrophotometer, BioTek Synergy H4, BioTek Instruments, Winooski, VT, USA) were performed in 96-well microtiter plates with a final volume of 200 µL. Thrombin (Thrombin from human plasma, Sigma, Taufkirchen, Germany) was tested at a final concentration of 0.5 NIH E/mL with the substrate S-2238 (H-D-Phenylalanyl-L-pipecolyl-L-arginine-p-nitroaniline dihydrochloride, Chromogenix AB, Mondal, Sweden) at 20 and 40 mM final concentration, and factor Xa (Factor Xa from bovine plasma, Chromogenix) at the final concentration of 1 mBAEE E/mL with the substrate S-2222 (N-Benzoyl-L-isoleucyl-L-glutamyl-glycyl-L-arginine-p-nitroaniline hydrochloride and its methyl ester, Chromogenix) at 100 and 200 mM final concentrations. Trypsin (Trypsin from bovine pancreas, Sigma) was assayed at a final concentration of 0.5 nkat/mL using the substrate S-2222 (Chromogenix) at 50 and 100 mM final concentrations. Inhibitors were dissolved in DMSO (concentration of stock solutions, 10 mmol/L) and diluted with distilled water to concentrations from […]. Reaction rates were measured in the presence and the absence of the inhibitor. Then, 50 µL HBSA buffer, 50 µL solution of each inhibitor concentration (or of HBSA buffer in case of measurement without inhibitor), and 50 µL of enzyme solution were pipetted into the microtiter wells. The plate was incubated for 15 min at 25 °C and then […] of chromogenic substrate was added. Absorbance at 405 nm at 25 °C was measured every 10 s. Measurements were carried out in triplicate with three concentrations of the inhibitor and two concentrations of the substrate. For every combination of concentrations, Ki was calculated from the change of absorbance in the initial, linear part of the curve according to the method of Cheng and Prusoff and the final result was given as their average value.

[2] = molecular target: T2, Factor Xa from bovine plasma (Bos taurus, UniProt P00743); assay: Enzyme amidolytic assay, factor Xa inhibition (chromogenic substrate S-2222); type: biochemical; settings: for Ki: S-2222 substrate, 25 °C, Cheng and Prusoff
T2 construct: Factor Xa from bovine plasma; purchased Chromogenix; host or cells: bovine plasma
Description: as §1, with “Thrombin (Thrombin from human plasma, Sigma, Taufkirchen, Germany) was tested at a final concentration of 0.5 NIH E/mL with the substrate S-2238 (H-D-Phenylalanyl-L-pipecolyl-L-arginine-p-nitroaniline dihydrochloride, Chromogenix AB, Mondal, Sweden) at 20 and 40 mM final concentration, and factor Xa (Factor Xa from bovine plasma, Chromogenix) at the final concentration of 1 mBAEE E/mL with the substrate S-2222 (N-Benzoyl-L-isoleucyl-L-glutamyl-glycyl-L-arginine-p-nitroaniline hydrochloride and its methyl ester, Chromogenix) at 100 and 200 mM final concentrations. Trypsin (Trypsin from bovine pancreas, Sigma) was assayed at a final concentration of 0.5 nkat/mL using the substrate S-2222 (Chromogenix) at 50 and 100 mM final concentrations.” left out, “Absorbance at 405 nm at 25 °C was measured every 10 s.” left out

[3] = molecular target: T3, Thrombin from human plasma (Homo sapiens, UniProt P00734); assay: Enzyme amidolytic assay, thrombin inhibition (chromogenic substrate S-2238); type: biochemical; settings: for Ki: Ki Thrombin, S-2238 substrate, 25 °C, Cheng and Prusoff
T3 construct: Thrombin from human plasma; purchased Sigma; host or cells: human plasma
Description: as §1

Thrombin = settings: read-out: Thrombin Inhibition EC50; cited from earlier work

T2 sequence (P00743 41-180): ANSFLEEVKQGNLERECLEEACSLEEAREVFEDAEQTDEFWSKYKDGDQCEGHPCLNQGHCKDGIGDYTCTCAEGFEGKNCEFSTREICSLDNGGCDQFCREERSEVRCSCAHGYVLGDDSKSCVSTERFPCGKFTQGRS
T2 sequence (P00743 234-492): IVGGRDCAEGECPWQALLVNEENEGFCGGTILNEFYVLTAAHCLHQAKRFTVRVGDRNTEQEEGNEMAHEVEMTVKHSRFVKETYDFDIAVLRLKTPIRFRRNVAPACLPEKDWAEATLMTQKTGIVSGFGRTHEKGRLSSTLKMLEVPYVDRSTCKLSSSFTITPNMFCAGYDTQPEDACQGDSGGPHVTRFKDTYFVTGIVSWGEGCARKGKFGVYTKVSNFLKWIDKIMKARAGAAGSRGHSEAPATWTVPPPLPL
T1 sequence (P00760 24-246): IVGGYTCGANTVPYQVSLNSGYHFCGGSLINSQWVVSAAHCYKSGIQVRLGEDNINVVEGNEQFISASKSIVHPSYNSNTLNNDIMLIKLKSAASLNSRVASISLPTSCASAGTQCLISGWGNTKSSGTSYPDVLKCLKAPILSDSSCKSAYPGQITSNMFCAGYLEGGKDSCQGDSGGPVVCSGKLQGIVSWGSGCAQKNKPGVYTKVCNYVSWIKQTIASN

Row | Compound | Ki [1] [µM] | Ki ([2]; read-out: Ki Factor Xa) [µM] | Ki [3] [µM] | Ki ([2]; Ki Factor Xa) [µM] | EC50 (Thrombin) [µM] | IC50 ([1]; in brackets in Ki Trypsin column) [µM] | IC50 ([2]; in brackets in Ki Factor Xa column) [µM] | IC50 [3] [µM]
1 | N=C(N)NCCCC(CO)NC(=O)C1Cc2ccccc2N1C(=O)C(CCc1ccccc1)NC(=O)C(O)Cc1ccc(O)cc1 (stereo not drawn) [Compound 11f] | 14 ± 1 | 76 ± 3 | 20 ± 3 | – | – | – | – | –
2 | COC(=O)[C@H](CCCNC(=N)N)NC(=O)[C@@H]1Cc2ccccc2N1C(=O)[C@@H](Cc1ccccc1)NC(=O)[C@H](O)Cc1ccccc1 (single isomer, unassigned) [Compound 11g] | 126 ± 14 | – | 50 ± 9 | 47 ± 8 | – | – | – | –
3 | N=C(N)NCCC[C@@H](CO)NC(=O)[C@H]1Cc2ccccc2N1C(=O)[C@@H](CCc1ccccc1)NC(=O)[C@H](O)Cc1ccccc1 (single isomer, unassigned) [Compound 11d] | 29 ± 2 | – | 11 ± 4 | 47 ± 6 | – | – | – | –
4 | N=C(N)NCCC[C@@H](CO)NC(=O)[C@@H]1Cc2ccccc2N1C(=O)[C@@H](CCc1ccccc1)NC(=O)[C@@H](O)Cc1ccc(O)cc1 (mixture of isomers) [Compound 11l] | 62 ± 3 | 62 ± 4 | 186 ± 48 | – | – | – | – | –
5 | N=C(N)NCCC[C@@H](CO)NC(=O)[C@H]1Cc2ccccc2N1C(=O)[C@@H](Cc1ccccc1)NC(=O)[C@H](O)Cc1ccccc1 (single isomer, unassigned) [Compound 11c] | 54 ± 1 | 54 ± 3 | 92 ± 20 | – | – | – | – | –
6 | COC(=O)C(CCCNC(=N)N)NC(=O)C1Cc2ccccc2N1C(=O)C(CCc1ccccc1)NC(=O)C(O)Cc1ccc(O)cc1 (mixture of isomers) [Compound 11e] | 3.9 ± 0.3 | 48 ± 5 | 30 ± 12 | – | – | – | – | –
7 | N=C(N)NCCC[C@@H](CO)NC(=O)[C@@H]1Cc2ccccc2N1C(=O)[C@@H](CCc1ccccc1)NC(=O)[C@H](O)Cc1ccccc1 (single isomer, unassigned) [Compound 11j] | 693 ± 159 | – | 187 ± 79 | 41 ± 9 | – | – | – | –
8 | COC(=O)[C@H](CCCNC(=N)N)NC(=O)[C@@H]1Cc2ccccc2N1C(=O)[C@@H](CCc1ccccc1)NC(=O)[C@H](O)Cc1ccccc1 (single isomer, unassigned) [Compound 11h] | 58 ± 17 | 35 ± 9 | 24 ± 8 | – | – | – | – | –
9 | COC(=O)[C@H](CCCNC(=N)N)NC(=O)[C@H]1Cc2ccccc2N1C(=O)[C@@H](CC(C)C)NC(=O)[C@H](O)Cc1ccccc1 (single isomer, unassigned) [Compound 29b] | 134 ± 42 | 65 ± 2 | 129 ± 13 | – | – | – | – | –
10 | COC(=O)[C@H](CCCNC(=N)N)NC(=O)[C@H]1Cc2ccccc2N1C(=O)[C@@H](CCc1ccccc1)NC(=O)[C@H](O)Cc1ccccc1 (single isomer, unassigned) [Compound 11b] | 2.8 ± 0.4 | 39 ± 6 | 44 ± 7 | – | – | – | – | –
11 | COC(=O)[C@H](CCCNC(=N)N)NC(=O)[C@@H]1Cc2ccccc2N1C(=O)[C@@H](CC(C)C)NC(=O)[C@H](O)Cc1ccccc1 (single isomer, unassigned) [Compound 29a] | 4.8 ± 0.7 | 30 ± 2 | 5.6 ± 0.3 | – | – | – | – | –
12 | C[C@H]1C[C@@H](C(=O)N[C@H](CO)CCCN=C(N)N)N(C(=O)[C@@H](CCc2ccc(O)cc2)NC(=O)[C@H](O)Cc2ccc(O)cc2)C1 [spumigin A] | – | – | – | – | 2.1 | – | – | –
13 | N=C(N)NCCC[C@@H](CO)NC(=O)[C@@H]1Cc2ccccc2N1C(=O)[C@@H](Cc1ccccc1)NC(=O)[C@H](O)Cc1ccccc1 (single isomer, unassigned) [Compound 11i] | 50 ± 3 | 51 ± 4 | 170 ± 58 | – | – | – | – | –
14 | N=C(N)NCCC[C@H](NC(=O)[C@H]1Cc2ccccc2N1C(=O)[C@@H](Cc1ccccc1)NC(=O)[C@H](O)Cc1ccccc1)C(=O)O (single isomer, unassigned) [Compound 12g] | 0.28 ± 0.04 | 69 ± 1 | 98 ± 26 | – | – | – | – | –
15 | COC(=O)C(CCCNC(=N)N)NC(=O)C1CCCN1C(=O)C(CCc1ccccc1)NC(=O)C(O)Cc1ccc(O)cc1 [Compound 21b, Methyl ((R)-2-((R,S)-2-hydroxy-3-(4-hydroxyphenyl)propanamido)-4-phenylbutanoyl)-D-prolyl-D-argininate] | 0.92 ± 0.08 | 29 ± 5 | 3.9 ± 0.4 | – | – | – | – | –
16 | C[C@H]1C[C@@H](C(=O)N(C)[C@H](CCCCN)C(=O)O)N(C(=O)[C@@H](CCc2ccc(O)cc2)NC(=O)[C@H](O)Cc2ccc(O)cc2)C1 [spumigin J] | – | – | – | – | 4.9 | – | – | –
17 | COC(=O)[C@H](CCCNC(=N)N)NC(=O)[C@H]1Cc2ccccc2N1C(=O)[C@@H](Cc1ccccc1)NC(=O)[C@H](O)Cc1ccccc1 (single isomer, unassigned) [Compound 11a] | 7.9 ± 3.5 | – | 52 ± 10 | 49 ± 4 | – | – | – | –
18 | C[C@H]1C[C@@H](C(=O)N[C@H](CO)CCCN=C(N)N)N(C(=O)[C@@H](CCc2ccc(O)cc2)NC(=O)[C@H](O)Cc2ccc(O)cc2)C1 (racemic) [spumigin A (racemate), spumigin A] | – | – | – | – | 7.5 | – | – | –
19 | COC(=O)[C@@H](CCCNC(=N)N)NC(=O)[C@H]1CCCN1C(=O)[C@@H](CCc1ccccc1)NC(=O)[C@H](O)Cc1ccccc1 [Compound 21a, Methyl ((R)-2-((R)-2-hydroxy-3-phenylpropanamido)-4-phenylbutanoyl)-D-prolyl-D-argininate] (H-[dPhLac][d(hPhe)][dP][dR]-OMe) | 1.4 ± 0.2 | 18 ± 4 | 3.8 ± 0.4 | – | – | 4.2 | 29 | 33
20 | COC(=O)C(CCCNC(=N)N)NC(=O)C1Cc2ccccc2N1C(=O)C(CCc1ccccc1)NC(=O)C(O)Cc1ccc(O)cc1 (mixture of isomers) [Compound 11k] | 72 ± 6 | 57 ± 8 | 34 ± 10 | – | – | – | – | –

— article PMC6266488, “Synthesis and Evaluation of Spumigin Analogues Library with Thrombin Inhibitory Activity” (Marine Drugs, 2018)
